Data taken from PMC4425204 (Bioorganic & medicinal chemistry letters, 2014).

Target: FabB (Escherichia coli, UniProt P0A953)
Experiment: NMR wLOGSY assay to evaluate FabB binding
Design: species or system E. coli

FabB, sequence (P0A953 whole entry): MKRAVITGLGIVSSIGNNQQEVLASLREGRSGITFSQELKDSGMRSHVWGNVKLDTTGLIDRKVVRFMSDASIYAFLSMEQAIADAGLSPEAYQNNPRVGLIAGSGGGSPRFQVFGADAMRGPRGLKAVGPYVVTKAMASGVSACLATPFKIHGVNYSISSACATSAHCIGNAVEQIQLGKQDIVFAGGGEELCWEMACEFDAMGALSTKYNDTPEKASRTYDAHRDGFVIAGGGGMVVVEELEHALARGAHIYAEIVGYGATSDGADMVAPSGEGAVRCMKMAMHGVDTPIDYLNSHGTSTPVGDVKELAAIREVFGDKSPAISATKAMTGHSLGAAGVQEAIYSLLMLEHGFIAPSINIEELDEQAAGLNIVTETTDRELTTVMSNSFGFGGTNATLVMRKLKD

O=c1oc2cc(Cl)ccc2n1CN(CC1CCOC1)C1CC1 (stereo not shown) [compound 1]
FabB binding in NMR wLOGSY assay: exhibited binding
